Measurements from patent US20260347348A1, “JAK1/JAK2/TYK2 Inhibitors For Topical Treatment of Dermatological Diseases” (Hangzhou Highlightll Pharmaceutical Co., Ltd, priority 2022, published 2026).
Like-named read-outs stand apart in the source and are kept apart here. Values belong to the molecule of their own block, whether it stands above or below them.

Experiments:
[1] = topical formulation, 1.2-37.6 g per application, twice a day; cited from earlier work
[2] = tested on: psoriasis; conditions: cited from earlier work
[3] = biological target: T1, TYK2 (Homo sapiens, UniProt P29597); experiment: TYK2 biochemical test (33P-ATP filter binding kinase assay); conditions: room temperature, 2 hours
Experimental: (§1) The tests were conducted by Reaction Biology Corp, Malvern, PA (Anastassiadis et al. Nat Biotechnol. 2011; 29(11):1039-45). The step is briefly described as follows.
(§2) Basic reaction buffer: 20 mM Hepes (pH 7.5), 10 mM MgCl2, 1 mM EGTA, 0.02% Brij35, 0.02 mg/ml BSA, 0.1 mM Na3VO4, 2 mM DTT and 1% DMSO. The required cofactor was added to each kinase reaction respectively.
(§3) • 1. Preparing the designated substrate in the newly prepared basic reaction buffer; • 2. Transferring the required cofactor to the above matrix solution; • 3. Transferring the designated kinase to the substrate solution and mixing well slightly; • 4. Transferring a compound of formulae I-III in DMSO to the kinase reaction mixture with Acoustic technique (Echo550; nanoliter range), culturing for 20 minutes at room temperature; • 5. Introducing ^33P-ATP (specific activity: 10 μCi/μl) to the reaction mixture to trigger a reaction; • 6. Culturing at room temperature and conducting a kinase reaction for 2 hours; • 7. Plotting the reaction on P81 ion exchange paper; • 8. Testing the kinase activity with a filter binding assay.

[4] = biological target: T2, JAK1 (Homo sapiens, UniProt P23458); experiment: JAK1 biochemical test (33P-ATP filter binding kinase assay); conditions: room temperature, 2 hours
Experimental: as §1, §2, §3

[5] = tested on: TYK2/JAK1/JAK2; experiment: TYK2/JAK1/JAK2 biochemical tests, comparative summary
Experimental: as §1, §2, §3

[6] = biological target: T1, TYK2; experiment: TYK2 cellular ELISA assay using NK92 cells (IL-12 and IL-18 stimulated IFNγ excretion); assay type: cell-based; conditions: IL-12 2 ng/ml and IL-18 5 ng/ml, 24 hours
Experimental: Purpose: test cellular TYK2 activity using IL-12 and IL-18 stimulated IFNγ excretion assay in NK92 cells.
• 1. Replace NK92 cell media with IL-2 by media without IL-2, maintain overnight; • 2. Plate NK92 cells to 96-well plate at density of ~150,000 cell/well; • 3. Add different concentrations of test article to wells, maintain in incubator at 37° C. and 5% CO2 for 1 hour; • 4. Add IL-12 (final concentration: 2 ng/ml) and IL-18 (final concentration: 5 ng/ml) to stimulate for 24 hours in the above incubator; • 5. After 24 hours, centrifuge at 2000 rpm for 5 min, take the supernatant and analyze according to instructions of the ELISA kit.

[7] = biological target: T2, JAK1; experiment: JAK1 cellular ELISA assay using PBMC cells (IL-6 stimulated STAT3 phosphorylation); assay type: cell-based; conditions: IL-6 100 ng/ml, 25 min
Experimental: Purpose: test cellular JAK1 activity using the IL-6 stimulated STAT3 phosphorylation assay in PBMC cells.
• 1. Plate PBMC cells to 96-well plate at density of ~300,000 cell/well; • 2. Add different concentrations of test article to wells, maintain in incubator at 37° C. and 5% CO2 for 1 hour; • 3. Add IL-6 (final concentration: 100 ng/ml) to stimulate for 25 min in the above incubator; • 4. After stimulation, transfer the suspension to 1.5 mL tube, centrifuge at 200 g for 5 min, collect cells, add 100 μL 1× lysate, lyse on ice for 1 hour; • 5. Centrifuge at 4° C. and 12000 rpm for 10 min, take the supernatant and analyze according to instructions of the ELISA kit.

[8] = Human liver microsome stability assay; assay type: in vitro ADME; conditions: liver microsomes
Experimental: The assay was conducted following procedures as below: • 1. Prepared 8 sample plates of 96-well plates, named as T0, T3, T6, T9, T15, T30, NCF30, BLANK. • 2. Dispensed 100 μl/well human microsomes to each plate. • 3. Dispensed 2 μL compound or control working solution/well to each plate (T0, T3, T6, T9, T15, T30, NCF30) except matrix blank and incubation plates at 37° C. for about 10 min. The final concentration of test compound was 1 μM. For T0, added 600 (μL/well) of cold stop solution immediately. • 4. Added 98 μL 100 mM potassium phosphate buffer/well to NCF30 plate, incubated at 37° C., start reaction. • 5. After pre-warming, dispensed NADPH regenerating system to 96-well plate as reservoir according to the plate map. Then added 98 μL/well to every plate (Blank, T30, T15, T9, T6, T3, T0) to start reaction. • 6. The reaction was stopped by the addition of 600 μl of cold stop solution at 0, 3, 6, 9, 15 and 30 minutes. Samples were shaked for 10 min and then centrifuged at 3220 g for 20 min. The supernatant was taken from each well and diluted with dilution solution before being analyzed by LC/MS/MS. • 7. […]
The slope value, k, was determined by linear regression of the natural logarithm of the remaining percentage of the parent drug vs. incubation time curve. The in vitro t1/2 was determined from the slope value: […]

[9] = Mini-pig dermal pharmacokinetic study; assay type: in vivo, Guangxi Bama mini-pigs; conditions: for AUC(0-t): 15 mg/cm^2, topical ointment
Experimental: The aim of this study was to obtain the distribution of test articles in mini-pig after topical administration. Test articles were formulated as ointment and then applied to 2 female Guangxi Bama mini-pigs (8-12 kg) (Wujiang Tian yu Biological Technology). Briefly, total area estimated to be approximately 10% of the total body surface area were clipped free of hair before treatment using electric clippers. The test article was dosed evenly to the skin with 15 mg/cm^2 at 0 h, 8 h and 24 h. Test articles were removed before next dosing. Blood and skin samples were collected at 24 h (pre-dosing), 25 h, 28 h, 32 h, 48 h and 96 h. The blood was taken via peripheral vein of each animal into pre-chilled tube containing potassium (K2) EDTA as anticoagulant. Exposed skin was washed using ethanol and then wiped with dry cotton swab before skin sample collection. Eight samples of dosing skin were drilled with a biopsy punch (0.7 cm diameter) for each time point. Epidermis and dermis were separated and the eight samples from the same time point were pooled together and homogenized. All the above samples and homogenate were quantified by LC-MS/MS analysis.

[10] = biological target: JAK2 (Homo sapiens, UniProt O60674); experiment: JAK2 biochemical test (33P-ATP filter binding kinase assay); conditions: room temperature, 2 hours
Experimental: as §1, §2, §3

[11] = biological target: T3, JAK3 (Homo sapiens, UniProt P52333); experiment: JAK3 biochemical test (33P-ATP filter binding kinase assay); conditions: room temperature, 2 hours
T3 sequence (P52333 1-1124): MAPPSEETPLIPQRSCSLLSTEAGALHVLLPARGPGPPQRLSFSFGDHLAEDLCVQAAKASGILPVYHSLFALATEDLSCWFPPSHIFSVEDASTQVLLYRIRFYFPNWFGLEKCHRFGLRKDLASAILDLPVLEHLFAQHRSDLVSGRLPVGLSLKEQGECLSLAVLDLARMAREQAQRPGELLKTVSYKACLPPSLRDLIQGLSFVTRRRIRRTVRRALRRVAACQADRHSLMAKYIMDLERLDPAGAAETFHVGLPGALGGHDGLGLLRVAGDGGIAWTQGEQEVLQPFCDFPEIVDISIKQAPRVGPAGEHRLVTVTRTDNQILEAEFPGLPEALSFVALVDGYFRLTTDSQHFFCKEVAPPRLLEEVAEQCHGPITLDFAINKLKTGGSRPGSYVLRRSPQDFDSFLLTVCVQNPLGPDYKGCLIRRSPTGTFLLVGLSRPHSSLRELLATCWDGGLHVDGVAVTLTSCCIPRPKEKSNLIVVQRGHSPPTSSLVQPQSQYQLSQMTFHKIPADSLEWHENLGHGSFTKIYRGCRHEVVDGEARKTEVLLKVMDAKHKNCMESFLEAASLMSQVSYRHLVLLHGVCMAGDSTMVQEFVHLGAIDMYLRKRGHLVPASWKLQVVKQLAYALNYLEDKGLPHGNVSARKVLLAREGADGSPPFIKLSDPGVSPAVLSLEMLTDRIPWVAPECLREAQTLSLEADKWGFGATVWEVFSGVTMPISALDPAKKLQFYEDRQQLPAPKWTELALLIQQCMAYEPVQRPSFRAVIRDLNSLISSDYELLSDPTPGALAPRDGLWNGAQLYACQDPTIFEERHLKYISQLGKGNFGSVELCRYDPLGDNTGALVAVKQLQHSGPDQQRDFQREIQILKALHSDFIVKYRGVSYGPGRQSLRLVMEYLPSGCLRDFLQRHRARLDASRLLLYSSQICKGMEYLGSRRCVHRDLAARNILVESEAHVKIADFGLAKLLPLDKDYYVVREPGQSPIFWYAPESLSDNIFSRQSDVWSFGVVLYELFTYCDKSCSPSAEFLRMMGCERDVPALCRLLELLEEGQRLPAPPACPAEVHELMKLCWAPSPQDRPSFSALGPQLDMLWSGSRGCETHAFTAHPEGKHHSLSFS
Experimental: as §1, §2, §3

T1 sequence (P29597 whole entry): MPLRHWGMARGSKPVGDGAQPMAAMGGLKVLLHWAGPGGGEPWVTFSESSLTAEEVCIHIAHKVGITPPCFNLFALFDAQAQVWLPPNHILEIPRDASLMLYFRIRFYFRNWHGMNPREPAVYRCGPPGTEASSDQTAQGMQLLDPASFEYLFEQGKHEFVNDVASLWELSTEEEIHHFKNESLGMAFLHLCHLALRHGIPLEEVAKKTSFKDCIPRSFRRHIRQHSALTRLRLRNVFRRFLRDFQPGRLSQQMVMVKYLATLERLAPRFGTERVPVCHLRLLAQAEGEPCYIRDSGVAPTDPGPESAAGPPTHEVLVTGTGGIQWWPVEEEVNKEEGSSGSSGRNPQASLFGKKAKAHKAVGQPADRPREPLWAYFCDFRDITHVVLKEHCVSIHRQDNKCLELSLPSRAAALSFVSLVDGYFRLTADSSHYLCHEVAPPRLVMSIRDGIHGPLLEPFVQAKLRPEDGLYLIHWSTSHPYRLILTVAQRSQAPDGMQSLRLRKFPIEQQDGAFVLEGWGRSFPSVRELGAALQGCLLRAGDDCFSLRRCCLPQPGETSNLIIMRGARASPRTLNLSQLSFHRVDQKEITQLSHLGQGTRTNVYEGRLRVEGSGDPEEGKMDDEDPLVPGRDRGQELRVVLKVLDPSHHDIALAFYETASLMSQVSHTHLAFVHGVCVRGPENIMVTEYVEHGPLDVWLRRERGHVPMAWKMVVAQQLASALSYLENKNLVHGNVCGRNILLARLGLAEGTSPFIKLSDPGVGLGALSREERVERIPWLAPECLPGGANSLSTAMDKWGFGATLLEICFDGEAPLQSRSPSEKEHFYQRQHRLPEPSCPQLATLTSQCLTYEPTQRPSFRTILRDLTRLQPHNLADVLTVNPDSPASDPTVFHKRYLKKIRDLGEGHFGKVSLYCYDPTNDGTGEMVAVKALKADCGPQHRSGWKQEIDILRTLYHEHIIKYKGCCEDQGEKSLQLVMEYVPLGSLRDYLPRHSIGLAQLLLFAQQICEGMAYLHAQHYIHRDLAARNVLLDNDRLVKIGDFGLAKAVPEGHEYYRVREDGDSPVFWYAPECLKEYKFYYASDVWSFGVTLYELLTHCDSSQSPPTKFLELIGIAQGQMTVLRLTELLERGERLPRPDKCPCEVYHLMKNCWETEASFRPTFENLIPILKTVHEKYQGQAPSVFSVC
T2 sequence (P23458 whole entry): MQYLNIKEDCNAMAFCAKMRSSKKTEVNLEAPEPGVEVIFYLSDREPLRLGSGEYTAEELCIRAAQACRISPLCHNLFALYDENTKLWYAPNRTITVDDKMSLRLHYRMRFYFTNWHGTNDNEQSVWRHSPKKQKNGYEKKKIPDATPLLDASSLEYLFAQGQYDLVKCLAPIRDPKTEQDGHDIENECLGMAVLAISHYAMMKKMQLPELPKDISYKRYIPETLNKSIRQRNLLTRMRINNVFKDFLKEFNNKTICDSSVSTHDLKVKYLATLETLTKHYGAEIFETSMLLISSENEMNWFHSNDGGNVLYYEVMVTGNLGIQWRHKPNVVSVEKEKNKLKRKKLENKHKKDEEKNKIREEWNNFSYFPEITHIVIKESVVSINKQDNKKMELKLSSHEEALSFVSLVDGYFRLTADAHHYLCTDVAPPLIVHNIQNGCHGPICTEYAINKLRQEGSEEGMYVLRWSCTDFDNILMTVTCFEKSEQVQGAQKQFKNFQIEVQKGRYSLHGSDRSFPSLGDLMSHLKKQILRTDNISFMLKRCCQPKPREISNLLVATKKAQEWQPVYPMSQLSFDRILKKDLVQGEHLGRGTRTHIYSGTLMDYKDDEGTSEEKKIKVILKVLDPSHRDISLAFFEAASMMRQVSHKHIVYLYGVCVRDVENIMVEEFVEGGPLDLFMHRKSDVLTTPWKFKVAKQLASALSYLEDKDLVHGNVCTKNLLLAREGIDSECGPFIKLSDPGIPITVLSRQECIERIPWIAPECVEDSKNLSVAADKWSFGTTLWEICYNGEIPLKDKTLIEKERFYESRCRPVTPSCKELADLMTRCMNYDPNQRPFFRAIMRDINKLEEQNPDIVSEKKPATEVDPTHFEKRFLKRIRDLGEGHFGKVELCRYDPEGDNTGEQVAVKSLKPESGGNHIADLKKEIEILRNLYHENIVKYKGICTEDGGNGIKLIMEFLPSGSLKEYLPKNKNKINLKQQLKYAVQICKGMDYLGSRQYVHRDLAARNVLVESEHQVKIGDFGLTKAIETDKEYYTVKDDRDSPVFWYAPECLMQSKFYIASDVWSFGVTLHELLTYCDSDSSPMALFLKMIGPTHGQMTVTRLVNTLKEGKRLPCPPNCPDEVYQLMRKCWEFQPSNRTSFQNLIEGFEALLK
JAK2, sequence (O60674 whole entry): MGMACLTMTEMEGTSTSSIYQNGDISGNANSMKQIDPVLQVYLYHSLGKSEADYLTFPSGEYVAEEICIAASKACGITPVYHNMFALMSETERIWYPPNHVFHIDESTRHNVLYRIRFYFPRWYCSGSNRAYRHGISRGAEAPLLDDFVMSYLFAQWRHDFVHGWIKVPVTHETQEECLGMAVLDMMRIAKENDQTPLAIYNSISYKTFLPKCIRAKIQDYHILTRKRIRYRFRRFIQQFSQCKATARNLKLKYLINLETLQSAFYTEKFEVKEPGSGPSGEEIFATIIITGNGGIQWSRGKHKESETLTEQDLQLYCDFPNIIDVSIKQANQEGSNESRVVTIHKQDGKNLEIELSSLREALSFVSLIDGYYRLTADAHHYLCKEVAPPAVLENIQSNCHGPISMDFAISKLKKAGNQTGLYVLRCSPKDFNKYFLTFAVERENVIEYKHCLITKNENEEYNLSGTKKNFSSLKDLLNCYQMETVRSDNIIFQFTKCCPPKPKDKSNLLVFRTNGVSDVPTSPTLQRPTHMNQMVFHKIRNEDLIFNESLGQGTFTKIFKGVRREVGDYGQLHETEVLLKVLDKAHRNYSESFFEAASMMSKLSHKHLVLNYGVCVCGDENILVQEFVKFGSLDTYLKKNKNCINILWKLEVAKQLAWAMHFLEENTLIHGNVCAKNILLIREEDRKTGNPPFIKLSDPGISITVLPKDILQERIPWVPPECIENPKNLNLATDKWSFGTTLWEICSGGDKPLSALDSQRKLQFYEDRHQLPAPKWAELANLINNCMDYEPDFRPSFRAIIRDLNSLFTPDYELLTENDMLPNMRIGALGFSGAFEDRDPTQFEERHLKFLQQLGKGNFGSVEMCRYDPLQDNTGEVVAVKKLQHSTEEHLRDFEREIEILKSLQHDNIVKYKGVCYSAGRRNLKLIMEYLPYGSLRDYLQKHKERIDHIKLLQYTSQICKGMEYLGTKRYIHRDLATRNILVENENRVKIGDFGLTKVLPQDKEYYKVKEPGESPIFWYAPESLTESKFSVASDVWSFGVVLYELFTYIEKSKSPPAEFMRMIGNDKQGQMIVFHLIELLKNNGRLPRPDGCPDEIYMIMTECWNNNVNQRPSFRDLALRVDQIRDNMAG

SMILES: N#CC[C@H](C1CCCC1)n1cc(-c2ncnc3[nH]ccc23)cn1 [ruxolitinib]
Cmax [1]: 449 ± 883 nM

SMILES: CNC(=O)c1nnc(NC(=O)C2CC2)cc1Nc1cccc(-c2ncn(C)n2)c1OC [deucravacitinib]
Phase 2 and Phase 3 results in patients with psoriasis [2]: positive Phase 2 and Phase 3 results

IC50 [3]: < 1 nM
IC50 [4]: < 1 nM
IC50 [6]: < 10 nM
IC50 [7]: < 500 nM
half-life at 1 µM [8]: 21 min
microsomal CLint at 1 µM ([8]; read-out: in vitro CLint(mic)): 65.9 µL/min/mg
AUC(0-t) ([9]; minipig, plasma, topical or ocular, 15 mg/cm^2 at 0 h, 8 h and 24 h, plasma, read-out: Plasma AUC0-last): 0.103 µg·h/mL
AUC(0-t) ([9]; minipig, topical or ocular, 15 mg/cm^2 at 0 h, 8 h and 24 h, dermis, read-out: Dermis AUC0-last): 517 µg·h/mL
AUC(0-t) ([9]; minipig, topical or ocular, 15 mg/cm^2 at 0 h, 8 h and 24 h, epidermis, read-out: Epidermis AUC0-last): 3520 µg·h/mL
Kp ([9]; minipig, topical or ocular, topical ointment, 15 mg/cm^2 at 0 h, 8 h and 24 h, read-out: Dermis/Plasma ratio (AUC)): 5020
SMILES: Cc1cnc(Nc2cnn(C)c2)nc1-c1cnn([C@H](CC#N)C2CCCC2)c1 [Compound 4, (R)-3-cyclopentyl-3-(4-(5-methyl-2-((1-methyl-1H-pyrazol-4-yl)amino)pyrimidin-4-yl)-1H-pyrazol-1-yl) propanenitrile]
TYK2/JAK1/JAK2 inhibition (in words) [5]: potent TYK2/JAK1/JAK2 inhibitors
systemic exposure and skin distribution (in words) ([9]; topical administration): minimal systemic exposure and enrichment in dermis and epidermis

IC50 [3]: < 1 nM
IC50 [4]: < 1 nM
IC50 [10]: < 1 nM
IC50 [11]: > 10 nM
IC50 [7]: < 500 nM
SMILES: CCS(=O)(=O)N1CC(CC#N)(n2cc(-c3nc(Nc4cnn(C)c4)ncc3C)cn2)C1 [Compound 18, 2-(1-(ethylsulfonyl)-3-(4-(5-methyl-2-((1-methyl-1H-pyrazol-4-yl)amino)pyrimidin-4-yl)-1H-pyrazol-1-yl)azetidin-3-yl)acetonitrile]
TYK2/JAK1/JAK2 inhibition (in words) [5]: potent TYK2/JAK1/JAK2 inhibitors
